# Reference: patent US11931451B2, “Skin lightening compounds from fruit seed extracts” (WiSys Technology Foundation, Inc., priority 2016, dated 2024)
# Experiments:
# [1] = Solubility of extracts and reference compounds in solvents / assay medium; assay type: physicochemical
# Description: A 2.5 gram sample of a red raspberry seed extract in a dry powder form was split into two fractions, one combined 1.25 grams of the dry extract with 11.25 grams of water to create a 10% aqueous solution of the extract. […] Combining 1.25 grams of the dry extract with about 11.25 grams of Isopropyl alcohol (91%) produced an about 10% alcohol solution.
# Using pure water was explored in extraction experiments with cranberry seed powder. The advantages of using water were essentially zero cost and toxicity. […] The limitations of using water were that it gave quite low yields in extractions at room temperature and only dissolved the most polar compounds from the seed powders, leaving most of the medium polarity materials behind. It is possible that this could be improved by heating. […] Simply filtering the mixture through inexpensive filter paper by gravity or mild vacuum was unsuccessful. One solution that worked was mixing in filtering media (diatomaceous earth) and then vacuum filtering through a bed of the same filtering medium. To completely clarify the mixture, an additional treatment with activated carbon and further vacuum filtering through a bed of diatomaceous earth was effective. Given the limitations of water extraction, it was not used extensively. One exception was the use of sodium hydroxide solutions in water to extract pomegranate seed powder, which contained significant amounts of the targeted compound ellagic acid. […] Therefore, 1 M aqueous sodium hydroxide solution was used to extract this material from pomegranate seed powder. After filtering away the solid seed material the solution was acidified to pH=4 by addition of 1 N HCl. A small amount of solid developed, which was filtered with some difficulties.
# The extracts in Tables 2 and 3, prepared from 70:30 methanol/water, were tested for their ability to inhibit tyrosinase at concentrations of 1.0 mg/mL, 0.1 mg/mL, 0.01 mg/mL, and in some cases 0.001 mg/mL. For comparison several other known tyrosinase inhibitors including kojic acid, alpha-arbutin, beta-arbutin, hydroquinone, and quercetin were tested. Kojic acid is often used in tyrosinase inhibition studies as a benchmark inhibitor for comparison with other inhibitors. I included beta-arbutin and hydroquinone due to their relevance in skin whitening applications. Additionally, several commercial skin whitening agents were also tested. These included a product called Radian Skin from BASF, and an arbutin material sold by the company Presperse. […] Even highly dilute samples of ellagic acid were not sufficiently soluble. […] Finally, a mixture of red raspberry and tomato extracts (FIG. 10) was tested to look for possible synergistic effects in mixtures on two quite different materials. […]
# [2] = tested on: tyrosinase enzyme (from mushroom); assay: Tyrosinase inhibition assay (L-DOPA to dopachrome, absorbance at 475 nm); assay type: biochemical; conditions: 0.001-1 mg/mL, FIGS. 11-12
# Description: Extracts were tested for their ability to inhibit the enzyme tyrosinase. This enzyme catalyzes the air oxidation of L-DOPA (colorless) to the compound dopachrome, which is a highly colored intermediate in the production of melanin. The dopachrome molecule absorbs strongly at 475 nm. So, measuring the rate of change of absorption at this wavelength using UV/visible spectroscopy can easily assess the enzyme's activity. The tyrosinase enzyme (from mushroom) was purchased from Sigma-Aldrich as a lyophilized powder with an activity of 5771 units per mg of solid (a unit of activity is defined as the rate at which the enzyme catalyzes the reaction of a standard substrate at a standard concentration). […] Next, the enzyme solution was added (500 μL), the cuvette was covered with a piece of Parafilm and inverted twice to thoroughly mix the solutions, and immediately after the cuvette was placed in a UV/visible spectrometer and absorbance was measured at 475 nm every second for 60 seconds. The slope of the line formed by graphing change in absorbance versus time gave the rate in units of AA/second. […] Percentage inhibition values were calculated by taking the rate of the blank run with no inhibitor minus the rate of the inhibited sample and then dividing that value by the blank rate and multiplying by 100. […]
solubility (medium not stated) [1],solubility in water ([1]; high pH),solubility in water ([1]; neutral pH),solubility in the enzyme assay ([1]; tyrosinase assay medium),"tyrosinase inhibition strength (in words, from dose-response curves) [2]",Compound
highly insoluble,very water soluble,only slightly soluble,highly insoluble,–,O=c1oc2c(O)c(O)cc3c(=O)oc4c(O)c(O)cc1c4c23 [ellagic acid]
–,–,–,–,strongest inhibitor,O=c1cc(CO)occ1O [kojic acid]
–,–,–,–,considerably more potent than the others,O=c1c(O)c(-c2ccc(O)c(O)c2)oc2cc(O)cc(O)c12 [quercetin]
